Experimental data reported in ChEMBL document CHEMBL4393657, “Tetrazole hybrids and their antifungal activities” (2019).
≈ marks a conversion by molar mass, not a printed value.

Columns and labels:
Type in all cases: functional
Candida albicans [1] = assay: Antifungal activity against Candida albicans assessed as reduction in fungal cell growth incubated for 24 and 72 hrs by cup plate method
Fusarium oxysporum = assay: Antifungal activity against Fusarium oxysporum assessed as reduction in fungal cell growth incubated for 24 and 72 hrs by cup plate method
Aspergillus flavus = assay: Antifungal activity against Aspergillus flavus assessed as reduction in fungal cell growth incubated for 24 and 72 hrs by cup plate method
Candida tropicalis = assay: Antifungal activity against Candida tropicalis assessed as reduction in fungal cell growth incubated for 48 hrs by broth microdilution method
Candida albicans [2] = assay: Antifungal activity against Candida albicans assessed as reduction in fungal cell growth incubated for 48 hrs by broth microdilution method
Aspergillus niger = assay: Antifungal activity against Aspergillus niger assessed as reduction in fungal cell growth incubated for 72 hrs by broth microdilution method
Cryptococcus neoformans = assay: Antifungal activity against Cryptococcus neoformans LA314 assessed as reduction in fungal cell growth incubated for 48 hrs by broth microdilution method; conditions: LA314, 48 h
Candida parapsilosis = assay: Antifungal activity against Candida parapsilosis ATCC 22019 assessed as reduction in fungal cell growth incubated for 48 hrs by broth microdilution method; conditions: Lodderomyces parapsilosis, ATCC 22019, 48 h
Nakaseomyces glabratus = assay: Antifungal activity against Candida glabrata assessed as reduction in fungal cell growth incubated for 48 hrs by broth microdilution method
Pichia kudriavzevii = assay: Antifungal activity against Candida krusei assessed as reduction in fungal cell growth incubated for 48 hrs by broth microdilution method

| SMILES | MIC (Candida albicans [1]) [µg/mL] | MIC (Fusarium oxysporum) [µg/mL] | MIC (Aspergillus flavus) [µg/mL] | MIC (Candida tropicalis) [µg/mL] | MIC (Candida albicans [2]) [µg/mL] | MIC (Aspergillus niger) [µg/mL] | MIC (Cryptococcus neoformans) [µg/mL] | MIC (Candida parapsilosis) [µg/mL] | MIC (Nakaseomyces glabratus) [µg/mL] | MIC (Pichia kudriavzevii) [µg/mL] |
| --- | --- | --- | --- | --- | --- | --- | --- | --- | --- | --- |
| COc1ccc2c(c1)cc(C1CC(c3cc(Br)ccc3O)=NN1)c1nnnn12 (stereo not given) | 25 to 100 (≈ 56.9 to 228 µM) | 25 to 100 (≈ 56.9 to 228 µM) | 25 to 100 (≈ 56.9 to 228 µM) |  |  |  |  |  |  |  |
| COc1ccc2cc(/C=C/C(=O)c3cc(Br)ccc3O)c3nnnn3c2c1 | 25 to 100 (≈ 58.8 to 235 µM) | 25 to 100 (≈ 58.8 to 235 µM) | 25 to 100 (≈ 58.8 to 235 µM) |  |  |  |  |  |  |  |
| Cc1cccc2c1cc(C1CC(c3cc(Br)ccc3O)=NN1)c1nnnn12 (stereo not given) | 25 to 100 (≈ 59.1 to 236 µM) | 25 to 100 (≈ 59.1 to 236 µM) | 25 to 100 (≈ 59.1 to 236 µM) |  |  |  |  |  |  |  |
| CCOC(=O)C(C#N)C(c1cc2cc(C)ccc2n2nnnc12)P(=O)(OCC)OCC (stereo not given) | 10 to 25 (≈ 22.5 to 56.1 µM) | 10 to 25 (≈ 22.5 to 56.1 µM) | 10 to 25 (≈ 22.5 to 56.1 µM) |  |  |  |  |  |  |  |
| COc1cccc2c1cc(/C=C/C(=O)c1cc(Br)ccc1O)c1nnnn12 | 25 to 100 (≈ 58.8 to 235 µM) | 25 to 100 (≈ 58.8 to 235 µM) | 25 to 100 (≈ 58.8 to 235 µM) |  |  |  |  |  |  |  |
| CCOC(=O)C(C#N)C(c1cc2ccc(OC)cc2n2nnnc12)P(=O)(OCC)OCC (stereo not given) | 10 to 25 (≈ 21.7 to 54.2 µM) | 10 to 25 (≈ 21.7 to 54.2 µM) | 10 to 25 (≈ 21.7 to 54.2 µM) |  |  |  |  |  |  |  |
| COc1cccc2c1cc(C1CC(c3cc(Br)ccc3O)=NN1)c1nnnn12 (stereo not given) | 25 to 100 (≈ 56.9 to 228 µM) | 25 to 100 (≈ 56.9 to 228 µM) | 25 to 100 (≈ 56.9 to 228 µM) |  |  |  |  |  |  |  |
| C[C@H](n1nnc(CCN2CCN(C(c3ccccc3)c3ccccc3)CC2)n1)[C@](O)(Cn1cncn1)c1ccc(F)cc1F |  |  |  | 0.25 to 16 (≈ 0.417 to 26.7 µM) | 0.25 to 16 (≈ 0.417 to 26.7 µM) | 0.25 to 16 (≈ 0.417 to 26.7 µM) | 0.25 to 16 (≈ 0.417 to 26.7 µM) | 0.25 to 16 (≈ 0.417 to 26.7 µM) | 0.25 to 16 (≈ 0.417 to 26.7 µM) | 0.25 to 16 (≈ 0.417 to 26.7 µM) |
| OC(Cn1cncn1)(Cn1nnc(CCN2CCN(c3ccc(F)cc3)CC2)n1)c1ccc(F)cc1F (stereo not given) |  |  |  | 1 to 16 (≈ 1.95 to 31.2 µM) | 1 to 16 (≈ 1.95 to 31.2 µM) | 1 to 16 (≈ 1.95 to 31.2 µM) | 1 to 16 (≈ 1.95 to 31.2 µM) | 1 to 16 (≈ 1.95 to 31.2 µM) | 1 to 16 (≈ 1.95 to 31.2 µM) | 1 to 16 (≈ 1.95 to 31.2 µM) |

Second part, the molecule after the results:

| MIC (Candida albicans [1]) [µg/mL] | MIC (Fusarium oxysporum) [µg/mL] | MIC (Aspergillus flavus) [µg/mL] | MIC (Candida tropicalis) [µg/mL] | MIC (Candida albicans [2]) [µg/mL] | MIC (Aspergillus niger) [µg/mL] | MIC (Cryptococcus neoformans) [µg/mL] | MIC (Candida parapsilosis) [µg/mL] | MIC (Nakaseomyces glabratus) [µg/mL] | MIC (Pichia kudriavzevii) [µg/mL] | SMILES |
| --- | --- | --- | --- | --- | --- | --- | --- | --- | --- | --- |
|  |  |  | 0.25 to 16 (≈ 0.491 to 31.4 µM) | 0.25 to 16 (≈ 0.491 to 31.4 µM) | 0.25 to 16 (≈ 0.491 to 31.4 µM) | 0.25 to 16 (≈ 0.491 to 31.4 µM) | 0.25 to 16 (≈ 0.491 to 31.4 µM) | 0.25 to 16 (≈ 0.491 to 31.4 µM) | 0.25 to 16 (≈ 0.491 to 31.4 µM) | C[C@H](n1nnc(CCN2CCN(c3ccccc3)CC2)n1)[C@](O)(Cn1cncn1)c1ccc(F)cc1F |
|  |  |  | 0.12 to 16 (≈ 0.221 to 29.4 µM) | 0.12 to 16 (≈ 0.221 to 29.4 µM) | 0.12 to 16 (≈ 0.221 to 29.4 µM) | 0.12 to 16 (≈ 0.221 to 29.4 µM) | 0.12 to 16 (≈ 0.221 to 29.4 µM) | 0.12 to 16 (≈ 0.221 to 29.4 µM) | 0.12 to 16 (≈ 0.221 to 29.4 µM) | C[C@H](n1nnnc1CCN1CCN(c2ccc(Cl)cc2)CC1)[C@](O)(Cn1cncn1)c1ccc(F)cc1F |
|  |  |  | 0.12 to 16 (≈ 0.221 to 29.4 µM) | 0.12 to 16 (≈ 0.221 to 29.4 µM) | 0.12 to 16 (≈ 0.221 to 29.4 µM) | 0.12 to 16 (≈ 0.221 to 29.4 µM) | 0.12 to 16 (≈ 0.221 to 29.4 µM) | 0.12 to 16 (≈ 0.221 to 29.4 µM) | 0.12 to 16 (≈ 0.221 to 29.4 µM) | C[C@H](n1nnnc1CCN1CCN(c2ccccc2Cl)CC1)[C@](O)(Cn1cncn1)c1ccc(F)cc1F |
|  |  |  | 0.5 to 16 (≈ 0.955 to 30.6 µM) | 0.5 to 16 (≈ 0.955 to 30.6 µM) | 0.5 to 16 (≈ 0.955 to 30.6 µM) | 0.5 to 16 (≈ 0.955 to 30.6 µM) | 0.5 to 16 (≈ 0.955 to 30.6 µM) | 0.5 to 16 (≈ 0.955 to 30.6 µM) | 0.5 to 16 (≈ 0.955 to 30.6 µM) | CC(n1nnnc1CCN1CCN(Cc2ccccc2)CC1)C(O)(Cn1cncn1)c1ccc(F)cc1F (stereo not given) |
|  |  |  | 0.25 to 16 (≈ 0.463 to 29.7 µM) | 0.25 to 16 (≈ 0.463 to 29.7 µM) | 0.25 to 16 (≈ 0.463 to 29.7 µM) | 0.25 to 16 (≈ 0.463 to 29.7 µM) | 0.25 to 16 (≈ 0.463 to 29.7 µM) | 0.25 to 16 (≈ 0.463 to 29.7 µM) | 0.25 to 16 (≈ 0.463 to 29.7 µM) | COc1ccccc1N1CCN(CCc2nnn([C@@H](C)[C@](O)(Cn3cncn3)c3ccc(F)cc3F)n2)CC1 |
|  |  |  | 1 to 16 (≈ 1.9 to 30.4 µM) | 1 to 16 (≈ 1.9 to 30.4 µM) | 1 to 16 (≈ 1.9 to 30.4 µM) | 1 to 16 (≈ 1.9 to 30.4 µM) | 1 to 16 (≈ 1.9 to 30.4 µM) | 1 to 16 (≈ 1.9 to 30.4 µM) | 1 to 16 (≈ 1.9 to 30.4 µM) | COc1ccccc1N1CCN(CCc2nnn(CC(O)(Cn3cncn3)c3ccc(F)cc3F)n2)CC1 (stereo not given) |
|  |  |  | 0.5 to 16 (≈ 0.943 to 30.2 µM) | 0.5 to 16 (≈ 0.943 to 30.2 µM) | 0.5 to 16 (≈ 0.943 to 30.2 µM) | 0.5 to 16 (≈ 0.943 to 30.2 µM) | 0.5 to 16 (≈ 0.943 to 30.2 µM) | 0.5 to 16 (≈ 0.943 to 30.2 µM) | 0.5 to 16 (≈ 0.943 to 30.2 µM) | OC(Cn1cncn1)(Cn1nnnc1CCN1CCN(c2cccc(Cl)c2)CC1)c1ccc(F)cc1F (stereo not given) |
|  |  |  | 0.12 to 16 (≈ 0.2 to 26.7 µM) | 0.12 to 16 (≈ 0.2 to 26.7 µM) | 0.12 to 16 (≈ 0.2 to 26.7 µM) | 0.12 to 16 (≈ 0.2 to 26.7 µM) | 0.12 to 16 (≈ 0.2 to 26.7 µM) | 0.12 to 16 (≈ 0.2 to 26.7 µM) | 0.12 to 16 (≈ 0.2 to 26.7 µM) | C[C@H](n1nnnc1CCN1CCN(C(c2ccccc2)c2ccccc2)CC1)[C@](O)(Cn1cncn1)c1ccc(F)cc1F |
|  |  |  | 1 to 16 (≈ 2.01 to 32.2 µM) | 1 to 16 (≈ 2.01 to 32.2 µM) | 1 to 16 (≈ 2.01 to 32.2 µM) | 1 to 16 (≈ 2.01 to 32.2 µM) | 1 to 16 (≈ 2.01 to 32.2 µM) | 1 to 16 (≈ 2.01 to 32.2 µM) | 1 to 16 (≈ 2.01 to 32.2 µM) | OC(Cn1cncn1)(Cn1nnc(CCN2CCN(c3ccccn3)CC2)n1)c1ccc(F)cc1F (stereo not given) |
|  |  |  | 1 to 16 (≈ 1.89 to 30.2 µM) | 1 to 16 (≈ 1.89 to 30.2 µM) | 1 to 16 (≈ 1.89 to 30.2 µM) | 1 to 16 (≈ 1.89 to 30.2 µM) | 1 to 16 (≈ 1.89 to 30.2 µM) | 1 to 16 (≈ 1.89 to 30.2 µM) | 1 to 16 (≈ 1.89 to 30.2 µM) | OC(Cn1cncn1)(Cn1nnc(CCN2CCN(c3cccc(Cl)c3)CC2)n1)c1ccc(F)cc1F (stereo not given) |
